Here are results for one compound from BindingDB's records for doi:10.1021/jm00163a069 (Merck Sharp & Dohme Research Laboratories, 1990).

The term pIC50 denotes the IC50 on a negative log10 scale, so that one unit is a factor of ten. Lower therefore signals a high IC50.

pIC50: −log10 of the molar value.

This assay can be described thus: Inhibition of binding of [125I]CCK-8 to Cholecystokinin type B receptor in guinea pig brain tissues.

For `O=C(NCC1CNc2ccccc2C(c2ccccc2F)=N1)C(O)c1ccccc1` (stereo unspecified), the pIC50 was less than 4.00.
